Measured values taken from paper PMC4457643 (Biochimica et biophysica acta, 2015).
Where two headings read alike, the source gives them in different places.

Assays:
CcP(triAla) [1] = target: T1, CcP(triAla) (Saccharomyces cerevisiae, UniProt P00431, H119A/R115A/W118A); assay: biochemical; assay type: binding, yeast; settings: for share of absorbance change, high-affinity (KD1) phase / share of absorbance change, low-affinity (KD2) phase: pH 7.0
CcP(triVal) [2] = target: T2, CcP(triVal) (Saccharomyces cerevisiae, UniProt P00431, H119V/R115V/W118V); assay: biochemical; assay type: binding, yeast; settings: for share of absorbance change, high-affinity (KD1) phase / share of absorbance change, low-affinity (KD2) phase: pH 7.0
T2 sequence (P00431 68-361 R115V/W118V/H119V): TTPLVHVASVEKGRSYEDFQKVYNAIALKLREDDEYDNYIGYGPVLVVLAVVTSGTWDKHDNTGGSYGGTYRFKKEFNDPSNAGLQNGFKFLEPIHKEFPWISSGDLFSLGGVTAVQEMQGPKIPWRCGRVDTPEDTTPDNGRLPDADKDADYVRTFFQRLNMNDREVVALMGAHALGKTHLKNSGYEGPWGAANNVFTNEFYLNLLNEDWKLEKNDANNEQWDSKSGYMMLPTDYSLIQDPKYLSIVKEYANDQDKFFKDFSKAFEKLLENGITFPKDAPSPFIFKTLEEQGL

CcP(triLeu) [3] = target: T3, CcP(triLeu) (Saccharomyces cerevisiae, UniProt P00431, H119L/R115L/W118L); assay: biochemical; assay type: binding, yeast
T3 sequence (P00431 68-361 R115L/W118L/H119L): as the sequence (P00431 68-361 R115V/W118V/H119V) above, with V48L, V51L, V52L counted along it

[4] = free ligand; cited from earlier work
CcP(triAla) [5] = target: T1, CcP(triAla); assay: Stopped-flow kinetics of imidazole binding to CcP; parameters: species or system yeast
CcP(triVal) [6] = target: T2, CcP(triVal); assay: Stopped-flow kinetics of imidazole binding to CcP; parameters: species or system yeast; settings: for pKa1 for ka^app / kd^app, k^acid (low pH limit): fit to Eq. 4; for ka^app, k^acid (low pH value): fit to Eq. 4, 0.10 M ionic strength, 25 °C; for ka^app / kd^app / kmax: pH 7
CcP(triLeu) [7] = target: T3, CcP(triLeu); assay: Stopped-flow kinetics of imidazole binding to CcP; parameters: species or system yeast; settings: for pKa1 for ka^app / pKa2 for ka^app: fit to Eq. 4 with pKa1 ≤ pKa2
[8] = read-out: KD2 (low-affinity phase), pH 7.0, 0.10 M ionic strength potassium phosphate buffer
[9] = read-out: KD1 (high-affinity phase), pH 7.0, 0.10 M ionic strength potassium phosphate buffer
[10] = read-out: KD1acid (low pH limit of KD1), fit of pH dependence pH 4-8 to Eq. 2
[11] = read-out: KD1base (high pH limit of KD1), fit of pH dependence pH 4-8 to Eq. 2
[12] = read-out: KD2base (high pH limit of KD2), fit of pH dependence pH 4-8 to Eq. 2
[13] = fast phase, fit to Eq. 4, 0.10 M ionic strength, 25 °C
[14] = fast phase, listed as imidazole
[15] = slow phase, listed as imidazole
[16] = slow phase, single-ionization fit

T1 sequence (P00431 68-361 R115A/W118A/H119A): as the sequence (P00431 68-361 R115V/W118V/H119V) above, with V48A, V51A, V52A counted along it

SMILES: O=[N+]([O-])c1c[nH]cn1 [4-Nitroimidazole, 4-nitroimidazole]
- Kd (CcP(triAla) [1]): 16 mM
- Kd (CcP(triVal) [2]): 0.56 mM
- Kd (CcP(triLeu) [3]): 35 mM
- pKa for the imidazole/imidazolate ionization [4]: 9.5

SMILES: Cn1ccnc1 [1-Methylimidazole, 1-methylimidazole]
- Kd (CcP(triAla) [1]): 0.35 mM
- share of absorbance change, high-affinity (KD1) phase (CcP(triAla) [1]): 30%
- share of absorbance change, low-affinity (KD2) phase (CcP(triAla) [1]): 70%
- share of absorbance change, low-affinity (KD2) phase (CcP(triAla) [1]; listed as MIM): about 70%
- Kd (CcP(triVal) [2]): 0.16 mM
- share of absorbance change, high-affinity (KD1) phase (CcP(triVal) [2]): 77%
- share of absorbance change, low-affinity (KD2) phase (CcP(triVal) [2]): 23%
- Kd (CcP(triVal) [2]; [8]): 6.8 mM
- Kd (CcP(triLeu) [3]): 39 mM

SMILES: c1c[nH]cn1 [Imidazole]
- share of absorbance change at 414 nm, low-affinity phase (CcP(triAla) [1]; between pH 4 and 8): 75 ± 8%
- share of absorbance change, low-affinity phase (CcP(triAla) [1]; pH 5.5): 76%
- share of absorbance change, high-affinity (KD1) phase (CcP(triAla) [1]): 17%
- share of absorbance change, low-affinity (KD2) phase (CcP(triAla) [1]): 83%
- Kd (CcP(triAla) [1]; read-out: KD1 (high-affinity phase), pH 5.5, 25 °C): 0.1 ± 0.03 mM
- Kd (CcP(triAla) [1]; [9]): 0.22 mM
- Kd (CcP(triAla) [1]; [10]): > 25 mM
- Kd (CcP(triAla) [1]; [11]): 0.13 ± 0.06 mM
- Kd (CcP(triAla) [1]; [8]): 12 mM
- Kd (CcP(triAla) [1]; read-out: KD2 (low-affinity phase), pH 7.0, 25 °C): 11 ± 1 mM
- Kd (CcP(triAla) [1]; [12]): 6.4 ± 0.7 mM
- high-affinity imidazole binding stronger than for wild-type CcP (CcP(triVal) [2]; pH 7): 4.7 orders of magnitude
- share of absorbance change, high-affinity (KD1) phase (CcP(triVal) [2]): 68%
- share of absorbance change, low-affinity (KD2) phase (CcP(triVal) [2]): 32%
- share of absorbance change, high-affinity phase, average (CcP(triVal) [2]; pH range 4 to 8): 67 ± 10%
- Kd (CcP(triVal) [2]; [9]): 0.083 mM
- Kd (CcP(triVal) [2]; [10]): 9.6 ± 5.5 mM
- Kd (CcP(triVal) [2]; [11]): 0.096 ± 0.007 mM
- Kd (CcP(triVal) [2]; read-out: KD1base (high pH limit of KD1), fit of pH dependence to Eq. 2): 0.096 ± 0.007 mM
- Kd (CcP(triVal) [2]; [8]): 12 mM
- Kd (CcP(triVal) [2]; [12]): 6.7 ± 2.3 mM
- share of absorbance change, high-affinity (KD1) phase (CcP(triLeu) [3]; pH 7.0): 78%
- share of absorbance change, low-affinity (KD2) phase (CcP(triLeu) [3]; pH 7.0): 22%
- Kd (CcP(triLeu) [3]; [9]): 0.6 mM
- Kd (CcP(triLeu) [3]; [11]): 0.22 ± 0.15 mM
- Kd (CcP(triLeu) [3]; [8]): 17 mM
- pKa1 for ka^app (CcP(triAla) [5]; fast phase, fit to Eq. 4): 7.0 ± 0.2
- ka^app, k^acid (low pH value) (CcP(triAla) [5]; [13]): 2.2 ± 0.4 M^−1 s^−1
- ka^app (CcP(triAla) [5]; fast phase, pH 7): 80 ± 7 M⁻¹ s⁻¹
- kd^app (CcP(triAla) [5]; fast phase, pH 7): 0.43 ± 0.04 s⁻¹
- kd^app, pH-independent average value (CcP(triAla) [5]; fast phase, pH range 4.0 to 8.0): 0.47 ± 0.10 s^−1
- kmax (CcP(triAla) [5]; slow phase, pH 7): 0.050 ± 0.009 s⁻¹
- kmax (= kslow), pH-independent average value (CcP(triAla) [5]; slow phase, pH range 4.0 to 8.0): 0.032 ± 0.011 s^−1
- kmax (= kslow), pH-independent average value (CcP(triAla) [5]; slow phase, pH range 4.0 to 8.0, listed as imidazole): (3.2 ± 1.1) × 10^−2 s^−1
- pKa1 for ka^app (CcP(triVal) [6]; fast phase): 6.2 ± 0.3
- ka^app, k^acid (low pH value) (CcP(triVal) [6]; fast phase): 5.4 ± 16.2 M^−1 s^−1
- ka^app, k^acid (low pH value) (CcP(triVal) [6]; [14]): 5.4 M^−1 s^−1
- ka^app (CcP(triVal) [6]; fast phase): 170 ± 7 M⁻¹ s⁻¹
- kd^app (CcP(triVal) [6]; fast phase): 0.32 ± 0.01 s⁻¹
- kmax (CcP(triVal) [6]; fast phase): 1.9 ± 0.1 s⁻¹
- kd^app, pH-independent average value (CcP(triVal) [6]; fast phase, pH range 4 to 8): 0.25 ± 0.08 s^−1
- kmax, pH-independent value (CcP(triVal) [6]; fast phase, pH range 4 to 8): 1.5 ± 0.3 s^−1
- kmax, pH-independent value (CcP(triVal) [6]; fast phase, pH range 4 to 8, listed as imidazole): 1.5 s^−1
- kd^app, k^acid (low pH limit) (CcP(triVal) [6]; slow phase): 0.026 ± 0.009 s^−1
- pKa1 for ka^app (CcP(triVal) [6]; slow phase): 7.6 ± 0.3
- ka^app, k^acid (low pH value) (CcP(triVal) [6]; slow phase): 1.3 ± 0.7 M^−1 s^−1
- ka^app, k^acid (low pH value) (CcP(triVal) [6]; [15]): 1.3 M^−1 s^−1
- kd^app, k^acid (low pH limit) (CcP(triVal) [6]; [15]): 0.026 s^−1
- ka^app (CcP(triVal) [6]; slow phase): 30 ± 10 M⁻¹ s⁻¹
- kd^app (CcP(triVal) [6]; slow phase): 0.050 ± 0,006 s^−1
- kmax (CcP(triVal) [6]; slow phase): 0.16 ± 0.08 s⁻¹
- kmax, pH-independent value (CcP(triVal) [6]; slow phase, pH range 4 to 8): 0.17 ± 0.04 s^−1
- kmax, pH-independent value (CcP(triVal) [6]; slow phase, pH range 4 to 8, listed as imidazole): 0.17 s^−1
- ka^app, k^acid (low pH value) (CcP(triLeu) [7]; [13]): 2.2 ± 0.4 M^−1 s^−1
- ka^app, k^base (high pH value) (CcP(triLeu) [7]; [13]): 0 ± 25 M^−1 s^−1
- ka^app, k^base (high pH value) (CcP(triLeu) [7]; fast phase, fit to Eq. 4, 0.10 M ionic strength, 25 °C, listed as imidazole): less than 25 M^−1 s^−1
- pKa1 for ka^app (CcP(triLeu) [7]; fast phase): 7.3 ± 0.9
- pKa2 for ka^app (CcP(triLeu) [7]; fast phase): 7.3 ± 1.5
- pKa1 for ka^app (CcP(triLeu) [7]; [14]): 7.3
- pKa2 for ka^app (CcP(triLeu) [7]; [14]): 7.3
- ka^app (CcP(triLeu) [7]; fast phase, pH 7): 36 ± 4 M⁻¹ s⁻¹
- kd^app (CcP(triLeu) [7]; fast phase, pH 7): 0.24 ± 0.03 s⁻¹
- kd^app, pH-independent average value (CcP(triLeu) [7]; fast phase, pH range 4 to 8): 0.38 ± 0.12 s^−1
- kmax, average value (CcP(triLeu) [7]; slow phase, averaged over pH range 4 to 8): 0.048 ± 0.018 s⁻¹
- kmax (CcP(triLeu) [7]; slow phase, pH 7): 0.070 ± 0.002 s⁻¹
- kmax (= kslow), k^acid (low pH value) (CcP(triLeu) [7]; [16]): 0.032 ± 0.003 s^−1
- kmax (= kslow), k^neut (high pH value) (CcP(triLeu) [7]; [16]): 0.077 ± 0.011 s^−1
- pKa1 for kmax (CcP(triLeu) [7]; [16]): 6.7 ± 0.4
